Common to all, as to assay type: cell-based
Test [1] addresses GABAA receptor α4β3δ (Homo sapiens, UniProt P28472+P48169). Put plainly: whole-cell patch clamp, potentiation of GABA. A general note: In patch-clamp work, channel activity is measured electrically.
Test [2] deals with T1, GABAA receptor α1β2γ2 (Homo sapiens, UniProt P14867+P47870). Put plainly: whole-cell patch clamp, potentiation of GABA.
The target in test [3] is T1, GABAA receptor α1β2γ2. Put plainly: whole-cell patch clamp, potentiation of GABA-evoked currents at […].

Chain of GABAA receptor α4β3δ (P48169 36-554): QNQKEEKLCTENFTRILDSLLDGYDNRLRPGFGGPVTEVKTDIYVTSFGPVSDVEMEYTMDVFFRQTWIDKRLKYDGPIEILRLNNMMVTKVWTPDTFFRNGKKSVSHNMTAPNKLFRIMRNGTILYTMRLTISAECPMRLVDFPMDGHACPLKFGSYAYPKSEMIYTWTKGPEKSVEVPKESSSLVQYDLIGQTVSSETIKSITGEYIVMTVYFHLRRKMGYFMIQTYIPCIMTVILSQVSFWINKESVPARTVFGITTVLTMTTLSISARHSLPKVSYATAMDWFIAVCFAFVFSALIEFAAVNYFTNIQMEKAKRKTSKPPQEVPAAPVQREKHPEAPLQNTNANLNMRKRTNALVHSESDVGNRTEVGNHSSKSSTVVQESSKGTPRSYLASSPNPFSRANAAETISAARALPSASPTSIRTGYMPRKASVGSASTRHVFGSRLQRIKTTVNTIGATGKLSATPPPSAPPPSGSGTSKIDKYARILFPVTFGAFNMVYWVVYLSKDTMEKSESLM
Chain of GABAA receptor α4β3δ (P28472 26-473): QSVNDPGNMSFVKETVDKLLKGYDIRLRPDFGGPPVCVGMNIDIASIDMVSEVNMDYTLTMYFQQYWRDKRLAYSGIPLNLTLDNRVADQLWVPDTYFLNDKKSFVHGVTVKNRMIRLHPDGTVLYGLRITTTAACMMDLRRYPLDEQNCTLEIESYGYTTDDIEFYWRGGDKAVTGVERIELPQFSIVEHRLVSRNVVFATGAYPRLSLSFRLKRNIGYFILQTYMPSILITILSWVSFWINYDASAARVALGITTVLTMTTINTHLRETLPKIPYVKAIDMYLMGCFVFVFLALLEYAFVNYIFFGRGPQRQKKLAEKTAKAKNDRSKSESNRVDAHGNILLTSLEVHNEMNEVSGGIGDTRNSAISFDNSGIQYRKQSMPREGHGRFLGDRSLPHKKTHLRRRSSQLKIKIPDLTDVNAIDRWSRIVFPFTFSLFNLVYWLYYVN
Chain of GABAA receptor α4β3δ (O14764 25-452 partner): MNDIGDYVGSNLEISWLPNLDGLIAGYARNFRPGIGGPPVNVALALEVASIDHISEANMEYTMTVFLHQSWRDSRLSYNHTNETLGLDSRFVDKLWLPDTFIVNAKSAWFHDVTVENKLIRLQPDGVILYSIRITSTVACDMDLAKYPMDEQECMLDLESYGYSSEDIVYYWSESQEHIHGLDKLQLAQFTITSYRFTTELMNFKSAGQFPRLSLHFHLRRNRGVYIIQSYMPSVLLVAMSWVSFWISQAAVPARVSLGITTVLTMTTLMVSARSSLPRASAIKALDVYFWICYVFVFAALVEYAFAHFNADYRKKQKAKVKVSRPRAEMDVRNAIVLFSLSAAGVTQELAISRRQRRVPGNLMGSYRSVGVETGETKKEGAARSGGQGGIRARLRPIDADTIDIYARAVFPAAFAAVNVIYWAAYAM
T1 sequence (P14867 28-456): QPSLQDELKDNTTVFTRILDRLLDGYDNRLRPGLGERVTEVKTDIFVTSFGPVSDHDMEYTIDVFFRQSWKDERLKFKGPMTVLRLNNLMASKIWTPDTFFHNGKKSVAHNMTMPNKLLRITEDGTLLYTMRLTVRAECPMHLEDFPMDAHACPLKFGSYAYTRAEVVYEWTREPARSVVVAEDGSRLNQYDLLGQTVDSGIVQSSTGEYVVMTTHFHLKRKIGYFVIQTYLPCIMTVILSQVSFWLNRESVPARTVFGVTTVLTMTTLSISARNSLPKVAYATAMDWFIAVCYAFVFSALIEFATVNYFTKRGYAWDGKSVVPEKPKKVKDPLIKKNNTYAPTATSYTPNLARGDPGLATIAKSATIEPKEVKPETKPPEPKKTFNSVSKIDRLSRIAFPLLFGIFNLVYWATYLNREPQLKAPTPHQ
T1 sequence (P47870 26-512): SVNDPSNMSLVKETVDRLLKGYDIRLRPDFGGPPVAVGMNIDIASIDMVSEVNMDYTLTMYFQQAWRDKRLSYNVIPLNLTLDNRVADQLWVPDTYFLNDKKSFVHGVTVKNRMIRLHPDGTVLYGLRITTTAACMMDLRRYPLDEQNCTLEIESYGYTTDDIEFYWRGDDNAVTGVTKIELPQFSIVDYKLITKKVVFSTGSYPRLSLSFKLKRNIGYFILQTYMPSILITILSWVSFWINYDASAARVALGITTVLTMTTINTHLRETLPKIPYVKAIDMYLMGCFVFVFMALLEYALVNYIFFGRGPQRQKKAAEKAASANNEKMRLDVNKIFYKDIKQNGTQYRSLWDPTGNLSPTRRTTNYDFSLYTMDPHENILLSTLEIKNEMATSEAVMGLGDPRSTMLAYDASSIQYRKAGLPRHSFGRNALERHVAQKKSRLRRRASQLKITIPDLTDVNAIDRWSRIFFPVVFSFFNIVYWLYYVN
T1 sequence (P18507 40-475 partner): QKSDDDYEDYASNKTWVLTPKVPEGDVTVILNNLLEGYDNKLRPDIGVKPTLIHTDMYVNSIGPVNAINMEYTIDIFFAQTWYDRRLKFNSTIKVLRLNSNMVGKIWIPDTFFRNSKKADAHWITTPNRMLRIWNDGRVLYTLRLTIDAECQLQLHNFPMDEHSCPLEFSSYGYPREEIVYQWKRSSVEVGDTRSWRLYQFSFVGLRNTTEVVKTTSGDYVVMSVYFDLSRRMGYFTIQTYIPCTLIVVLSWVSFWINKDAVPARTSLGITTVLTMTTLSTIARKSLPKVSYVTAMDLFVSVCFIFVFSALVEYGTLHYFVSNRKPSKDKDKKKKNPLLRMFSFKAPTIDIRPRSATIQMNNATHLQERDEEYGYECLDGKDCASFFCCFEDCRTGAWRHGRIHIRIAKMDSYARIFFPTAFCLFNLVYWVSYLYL

One may read the EC50 as the concentration giving half of the maximal effect. Turning to `CC(=O)[C@H]1CC[C@H]2[C@@H]3CC[C@H]4C[C@H](O)CC[C@]4(C)[C@H]3CC[C@]12C` [allopregnanolone], the figures for the EC50 in test [1] and in test [2] were 0.08 µM and 0.185 µM, respectively.

SGE-872: the “% potentiation at 10 μM” value in test [3] came out at 744 % potentiation at 10 µM. Also, the EC50 in test [1] was 0.16 µM.

The values are drawn from article PMC5544527 (Journal of neuroscience research, 2015).
